From ChEMBL document CHEMBL1781915, “Potential virtual lead identification in the discovery of renin inhibitors: application of ligand and structure-based pharmacophore modeling approaches” (Eur J Med Chem, 2011)
pIC50: −log10 of the molar value.

Molecular target: T1, Renin (Homo sapiens, UniProt P00797)
T1 sequence (P00797 whole entry): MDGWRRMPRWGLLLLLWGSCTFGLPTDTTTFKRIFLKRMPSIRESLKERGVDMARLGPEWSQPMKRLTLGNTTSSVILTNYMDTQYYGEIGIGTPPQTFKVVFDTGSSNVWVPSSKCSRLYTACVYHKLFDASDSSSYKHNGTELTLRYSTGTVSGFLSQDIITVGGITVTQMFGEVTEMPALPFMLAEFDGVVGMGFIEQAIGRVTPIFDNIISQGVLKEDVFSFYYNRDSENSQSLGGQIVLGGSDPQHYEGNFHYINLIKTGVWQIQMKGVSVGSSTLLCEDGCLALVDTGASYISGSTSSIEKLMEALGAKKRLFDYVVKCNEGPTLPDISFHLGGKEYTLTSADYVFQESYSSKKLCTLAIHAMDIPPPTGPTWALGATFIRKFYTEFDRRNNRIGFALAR

pIC50 | Compound
9.15 | CCCCNC(=O)C(CC(=O)C(CC1CCCCC1)NC(=O)C(Cc1cnc[nH]1)NC(=O)C(Cc1ccccc1)CS(=O)(=O)C(C)(C)C)C(C)C (stereo unspecified)
9.05 | CCCCNC(=O)C(C)CC(O)C(N)CC(CNC(=O)c1cccc(OCCCOC)c1)C(C)C (stereo unspecified)
9.00 | CC(C)(C)S(=O)(=O)CC(Cc1ccccc1)C(=O)NC(Cc1cnc[nH]1)C(=O)NC(CC1CCCCC1)C(O)C(O)C1CC1 (stereo unspecified)

Second part, the molecule before the results:

Compound | pIC50
Cc1cc(Cl)c(OCCOc2ccc(C3=C(C(=O)N(Cc4cccc(C)c4C)C4CC4)C4CNCC(C3)N4)cc2)c(Cl)c1 (stereo unspecified) | 9.80
CCCCNC(=O)C(C)CC(O)C(N)CC(C)(C)CC(=O)N1CC(C(=O)OC)Cc2ccccc21 (stereo unspecified) | 9.10
COc1ccccc1COCCCOc1ccc(N2C(=O)CNCC2COC2=CC3C(=CC=CN3CCCO)C=C2)cc1 (stereo unspecified) | 7.43
